Molecular target: Cannabinoid receptor 1 (Homo sapiens, UniProt P21554)
Assay: Compound was evaluated for its binding affinity towards Cannabinoid receptor 1 [Inactive form(R) of CB1 receptor]

Chain of Cannabinoid receptor 1 (P21554 whole entry): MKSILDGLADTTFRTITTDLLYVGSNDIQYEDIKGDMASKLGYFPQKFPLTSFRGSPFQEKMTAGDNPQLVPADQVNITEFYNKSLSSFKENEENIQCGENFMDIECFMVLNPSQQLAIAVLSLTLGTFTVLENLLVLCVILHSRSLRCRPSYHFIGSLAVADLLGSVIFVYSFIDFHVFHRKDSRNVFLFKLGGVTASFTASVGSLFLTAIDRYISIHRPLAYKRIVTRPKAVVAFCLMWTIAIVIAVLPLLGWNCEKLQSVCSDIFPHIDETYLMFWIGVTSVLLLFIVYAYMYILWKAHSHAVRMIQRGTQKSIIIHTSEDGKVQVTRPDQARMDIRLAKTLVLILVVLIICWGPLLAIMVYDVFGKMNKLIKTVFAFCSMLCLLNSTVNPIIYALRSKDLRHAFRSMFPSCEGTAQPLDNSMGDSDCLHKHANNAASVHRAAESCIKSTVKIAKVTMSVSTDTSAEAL

Point of comparison: `CCCCC/C=C\C/C=C\C/C=C\C/C=C\CCCCCC(=O)NCCO`, Ki 34.4 nM. Against it:
- CCCCC/C=C\C/C=C\C/C=C\C/C=C\CC[C@H](C)C(=O)N[C@@H](C)CO — 11-fold higher, 389 nM
- CCCCC/C=C\C/C=C\C/C=C\C/C=C\CC[C@H](C)C(=O)N[C@H](C)CO — 5.4-fold higher, 185 nM
- CCCCC/C=C\C/C=C\C/C=C\C/C=C\CC[C@@H](C)C(=O)N[C@@H](C)CO — 6.8-fold higher, 233 nM
- CCCCC/C=C\C/C=C\CCCCCCCCCC(=O)NCCO — higher, > 1500 nM
- CCCCC/C=C\C/C=C\C/C=C\C/C=C\CC[C@@H](C)C(=O)N[C@H](C)CO — 4.6-fold lower, 7.42 nM
